What was measured:
[1] = target: C-C chemokine receptor type 5 (Homo sapiens, UniProt P51681); assay type: cell membranes, HEK293, Membrane; conditions: hek293; note: in other assays of this panel Not Active means under 50% inhibition at 10 µM
[2] = target: T1, Muscarinic acetylcholine receptor M5 (Homo sapiens, UniProt P08912); assay type: cell membranes, CHO-K1, Membrane; conditions: cho-k1; note: in other assays of this panel Not Active means under 50% inhibition at 10 µM
T1 sequence (P08912 whole entry): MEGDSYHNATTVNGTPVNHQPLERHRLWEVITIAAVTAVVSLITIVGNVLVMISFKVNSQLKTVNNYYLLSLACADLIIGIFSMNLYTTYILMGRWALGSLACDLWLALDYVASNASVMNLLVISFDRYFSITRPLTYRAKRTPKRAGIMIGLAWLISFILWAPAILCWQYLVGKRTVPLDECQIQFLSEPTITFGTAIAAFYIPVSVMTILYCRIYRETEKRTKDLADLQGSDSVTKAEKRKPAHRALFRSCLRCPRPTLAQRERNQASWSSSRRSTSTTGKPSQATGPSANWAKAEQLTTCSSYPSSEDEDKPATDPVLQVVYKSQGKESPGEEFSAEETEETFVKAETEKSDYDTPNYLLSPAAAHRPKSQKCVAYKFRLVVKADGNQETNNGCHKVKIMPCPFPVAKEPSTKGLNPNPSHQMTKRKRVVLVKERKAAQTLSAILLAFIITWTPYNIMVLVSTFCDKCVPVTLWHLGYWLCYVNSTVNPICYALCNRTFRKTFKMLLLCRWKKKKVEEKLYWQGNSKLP

Estrogen receptor = target: T2, Estrogen receptor (Homo sapiens, UniProt P03372); conditions: sf9; note: in other assays of this panel Not Active means under 50% inhibition at 10 µM
T2 sequence (P03372 whole entry): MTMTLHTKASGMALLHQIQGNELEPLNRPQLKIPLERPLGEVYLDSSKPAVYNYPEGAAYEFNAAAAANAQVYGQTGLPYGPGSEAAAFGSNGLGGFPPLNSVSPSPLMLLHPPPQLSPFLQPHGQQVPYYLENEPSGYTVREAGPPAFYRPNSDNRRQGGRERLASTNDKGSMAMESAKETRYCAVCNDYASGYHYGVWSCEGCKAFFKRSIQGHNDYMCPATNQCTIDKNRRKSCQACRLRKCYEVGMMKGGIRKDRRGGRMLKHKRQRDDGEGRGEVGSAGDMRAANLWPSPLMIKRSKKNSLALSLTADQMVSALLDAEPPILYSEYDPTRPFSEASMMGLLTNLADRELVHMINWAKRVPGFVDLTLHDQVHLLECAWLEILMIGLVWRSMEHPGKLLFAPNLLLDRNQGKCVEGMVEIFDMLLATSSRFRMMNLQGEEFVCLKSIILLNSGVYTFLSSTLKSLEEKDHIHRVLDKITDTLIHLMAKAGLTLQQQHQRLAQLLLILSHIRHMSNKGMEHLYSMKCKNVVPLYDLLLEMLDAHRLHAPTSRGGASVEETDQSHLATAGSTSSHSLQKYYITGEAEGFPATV

[3] = DRUGMATRIX: Serotonin (5-Hydroxytryptamine) 5-HT3 radioligand binding (ligand: [3H] GR-65630); assay type: cell membranes, Membrane; conditions: hek293; Not Active = under 50% inhibition at 10 µM
[4] = target: Vascular endothelial growth factor receptor 1 (Homo sapiens, UniProt P17948); assay type: cell-based; conditions: huvec; note: in other assays of this panel Not Active means under 50% inhibition at 10 µM
Cytochrome P450 3A4 = Cytochrome P450 3A4 (Homo sapiens, UniProt P08684); conditions: bti-tn-5b1-4; note: in other assays of this panel Not Active means under 50% inhibition at 10 µM
Nitric oxide synthase 1 = Nitric oxide synthase 1 (Rattus norvegicus, UniProt P29476); assay type: tissue-based, Cerebellum; note: in other assays of this panel Not Active means under 50% inhibition at 10 µM
Nitric oxide synthase 1, sequence (P29476 whole entry): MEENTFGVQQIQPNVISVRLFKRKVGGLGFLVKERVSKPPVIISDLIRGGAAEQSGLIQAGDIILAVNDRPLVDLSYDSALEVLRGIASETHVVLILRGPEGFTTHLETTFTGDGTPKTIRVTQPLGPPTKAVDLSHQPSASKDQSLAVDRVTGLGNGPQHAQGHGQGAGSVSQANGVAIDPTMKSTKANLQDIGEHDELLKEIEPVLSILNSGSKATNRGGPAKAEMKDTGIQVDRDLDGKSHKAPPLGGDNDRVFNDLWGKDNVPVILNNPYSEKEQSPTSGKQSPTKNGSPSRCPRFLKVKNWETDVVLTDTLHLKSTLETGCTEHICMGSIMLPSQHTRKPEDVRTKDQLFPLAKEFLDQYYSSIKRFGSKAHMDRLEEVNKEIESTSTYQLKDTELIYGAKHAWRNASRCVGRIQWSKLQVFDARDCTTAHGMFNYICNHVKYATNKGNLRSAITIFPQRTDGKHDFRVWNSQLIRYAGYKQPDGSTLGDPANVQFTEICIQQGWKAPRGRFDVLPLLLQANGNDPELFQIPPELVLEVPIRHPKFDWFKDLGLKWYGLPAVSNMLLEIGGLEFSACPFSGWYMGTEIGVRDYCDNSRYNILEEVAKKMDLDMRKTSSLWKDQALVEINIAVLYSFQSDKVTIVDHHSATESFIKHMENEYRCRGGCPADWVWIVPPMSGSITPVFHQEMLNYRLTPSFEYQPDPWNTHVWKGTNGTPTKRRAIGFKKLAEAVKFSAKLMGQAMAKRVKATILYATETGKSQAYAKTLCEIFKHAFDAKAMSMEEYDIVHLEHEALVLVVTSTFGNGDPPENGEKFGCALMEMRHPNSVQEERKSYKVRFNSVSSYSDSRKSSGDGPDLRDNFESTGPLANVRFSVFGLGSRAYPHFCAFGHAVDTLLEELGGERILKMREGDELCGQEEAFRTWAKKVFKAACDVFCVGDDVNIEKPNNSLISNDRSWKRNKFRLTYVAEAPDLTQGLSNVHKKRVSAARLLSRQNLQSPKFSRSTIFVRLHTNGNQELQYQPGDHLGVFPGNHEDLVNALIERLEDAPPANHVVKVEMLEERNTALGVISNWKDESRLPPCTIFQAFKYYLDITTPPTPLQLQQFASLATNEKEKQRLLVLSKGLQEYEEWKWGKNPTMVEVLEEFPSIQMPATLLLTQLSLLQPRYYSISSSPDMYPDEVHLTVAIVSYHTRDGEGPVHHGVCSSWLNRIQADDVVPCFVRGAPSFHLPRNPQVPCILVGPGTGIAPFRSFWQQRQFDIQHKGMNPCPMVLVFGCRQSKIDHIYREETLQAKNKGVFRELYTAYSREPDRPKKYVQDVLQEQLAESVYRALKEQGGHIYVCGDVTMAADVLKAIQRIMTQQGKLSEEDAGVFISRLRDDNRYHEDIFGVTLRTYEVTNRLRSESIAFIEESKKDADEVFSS

Vascular endothelial growth factor receptor 1, sequence (P17948 whole entry): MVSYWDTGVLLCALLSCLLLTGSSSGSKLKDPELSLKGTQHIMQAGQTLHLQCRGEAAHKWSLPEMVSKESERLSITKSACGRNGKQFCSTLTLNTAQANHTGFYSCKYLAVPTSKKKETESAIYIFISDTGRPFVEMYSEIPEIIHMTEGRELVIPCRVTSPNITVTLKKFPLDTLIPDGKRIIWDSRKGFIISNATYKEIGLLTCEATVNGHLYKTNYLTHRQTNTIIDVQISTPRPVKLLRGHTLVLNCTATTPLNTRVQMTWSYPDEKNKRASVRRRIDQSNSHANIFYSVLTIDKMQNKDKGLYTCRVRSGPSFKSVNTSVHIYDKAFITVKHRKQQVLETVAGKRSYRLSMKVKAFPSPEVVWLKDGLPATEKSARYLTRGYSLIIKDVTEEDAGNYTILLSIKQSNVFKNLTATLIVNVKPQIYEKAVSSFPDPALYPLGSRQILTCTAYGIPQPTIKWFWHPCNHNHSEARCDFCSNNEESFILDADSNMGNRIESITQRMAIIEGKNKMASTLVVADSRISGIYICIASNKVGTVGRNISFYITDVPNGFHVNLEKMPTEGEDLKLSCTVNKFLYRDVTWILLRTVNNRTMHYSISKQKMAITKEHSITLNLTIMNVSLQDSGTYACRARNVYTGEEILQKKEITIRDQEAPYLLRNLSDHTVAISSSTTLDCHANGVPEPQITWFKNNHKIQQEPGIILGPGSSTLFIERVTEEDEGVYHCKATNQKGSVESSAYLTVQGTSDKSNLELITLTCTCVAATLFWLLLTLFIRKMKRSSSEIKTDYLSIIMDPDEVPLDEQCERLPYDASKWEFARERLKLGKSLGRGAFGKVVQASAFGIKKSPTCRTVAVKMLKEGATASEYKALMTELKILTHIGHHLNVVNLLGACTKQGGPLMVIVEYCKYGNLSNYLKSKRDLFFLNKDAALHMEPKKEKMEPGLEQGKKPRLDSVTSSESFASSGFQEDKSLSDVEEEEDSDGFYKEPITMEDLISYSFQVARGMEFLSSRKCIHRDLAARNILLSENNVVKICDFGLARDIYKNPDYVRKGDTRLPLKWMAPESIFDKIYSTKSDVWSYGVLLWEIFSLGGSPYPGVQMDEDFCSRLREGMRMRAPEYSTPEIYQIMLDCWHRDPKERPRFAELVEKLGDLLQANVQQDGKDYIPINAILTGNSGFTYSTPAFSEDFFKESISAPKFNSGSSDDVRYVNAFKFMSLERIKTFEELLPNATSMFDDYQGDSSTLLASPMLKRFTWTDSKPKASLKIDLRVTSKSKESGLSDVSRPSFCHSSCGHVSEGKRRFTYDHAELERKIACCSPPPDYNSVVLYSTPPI
Cytochrome P450 3A4, sequence (P08684 whole entry): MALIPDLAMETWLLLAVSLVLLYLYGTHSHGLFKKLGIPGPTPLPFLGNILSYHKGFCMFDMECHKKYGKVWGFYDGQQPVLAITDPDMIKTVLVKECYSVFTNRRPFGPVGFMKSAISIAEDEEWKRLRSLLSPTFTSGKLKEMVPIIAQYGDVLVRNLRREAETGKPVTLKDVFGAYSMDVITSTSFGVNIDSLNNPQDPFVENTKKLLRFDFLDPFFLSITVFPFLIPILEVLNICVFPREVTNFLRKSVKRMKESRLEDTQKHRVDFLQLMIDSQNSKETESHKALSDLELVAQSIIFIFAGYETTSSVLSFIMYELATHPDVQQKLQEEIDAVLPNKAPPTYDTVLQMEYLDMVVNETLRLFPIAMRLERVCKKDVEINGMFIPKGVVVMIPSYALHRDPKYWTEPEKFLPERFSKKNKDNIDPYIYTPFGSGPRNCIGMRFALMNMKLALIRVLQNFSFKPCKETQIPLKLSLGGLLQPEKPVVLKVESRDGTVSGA
C-C chemokine receptor type 5, sequence (P51681 whole entry): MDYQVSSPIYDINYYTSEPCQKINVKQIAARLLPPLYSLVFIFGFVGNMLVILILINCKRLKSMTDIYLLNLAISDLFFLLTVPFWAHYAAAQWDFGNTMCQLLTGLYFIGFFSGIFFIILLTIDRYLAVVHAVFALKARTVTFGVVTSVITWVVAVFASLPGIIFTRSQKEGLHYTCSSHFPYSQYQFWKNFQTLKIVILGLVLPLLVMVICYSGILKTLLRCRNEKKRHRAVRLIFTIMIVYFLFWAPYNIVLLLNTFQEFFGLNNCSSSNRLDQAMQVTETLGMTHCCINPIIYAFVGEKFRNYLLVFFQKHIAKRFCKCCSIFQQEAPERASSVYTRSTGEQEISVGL

COc1cccc2c1C(=O)c1c(O)c3c(c(O)c1C2=O)C[C@@](O)(C(=O)CO)C[C@@H]3O[C@H]1C[C@H](N)[C@@H](O)[C@H](C)O1 [EPIRUBICIN]
Not Active: IC50 [1] | IC50 [2] | IC50 (Estrogen receptor) | IC50 [3] | Ki [3] | IC50 [4] | IC50 (Cytochrome P450 3A4) | Ki (Cytochrome P450 3A4) | IC50 (Nitric oxide synthase 1)

CC1(C)O[C@@H]2C[C@H]3[C@@H]4C[C@H](F)C5=CC(=O)C=C[C@]5(C)[C@H]4[C@@H](O)C[C@]3(C)[C@]2(C(=O)CO)O1 [FLUNISOLIDE]
Not Active: IC50 [1] | IC50 [2] | IC50 (Estrogen receptor) | IC50 [3] | Ki [3] | IC50 [4] | IC50 (Cytochrome P450 3A4) | Ki (Cytochrome P450 3A4) | IC50 (Nitric oxide synthase 1)

CC1(C)O[C@@H]2C[C@H]3[C@@H]4C[C@H](F)C5=CC(=O)C=C[C@]5(C)[C@@]4(F)[C@@H](O)C[C@]3(C)[C@]2(C(=O)CO)O1 [FLUOCINOLONE ACETONIDE]
Not Active: IC50 [1] | IC50 [2] | IC50 (Estrogen receptor) | IC50 [3] | Ki [3] | IC50 [4] | IC50 (Cytochrome P450 3A4) | Ki (Cytochrome P450 3A4) | IC50 (Nitric oxide synthase 1)

CC1(C)O[C@@H]2C[C@H]3[C@@H]4C[C@H](F)C5=CC(=O)CC[C@]5(C)[C@H]4[C@@H](O)C[C@]3(C)[C@]2(C(=O)CO)O1 [FLURANDRENOLIDE]
Not Active: IC50 [1] | IC50 [2] | IC50 (Estrogen receptor) | IC50 [3] | Ki [3] | IC50 [4] | IC50 (Cytochrome P450 3A4) | Ki (Cytochrome P450 3A4) | IC50 (Nitric oxide synthase 1)

Cc1ccc(S(=O)(=O)NC(=O)NN2CC3CCCC3C2)cc1 (stereo not drawn) [GLICLAZIDE]
Not Active: IC50 [1] | IC50 [2] | IC50 (Estrogen receptor) | IC50 [3] | Ki [3] | IC50 [4] | IC50 (Cytochrome P450 3A4) | Ki (Cytochrome P450 3A4) | IC50 (Nitric oxide synthase 1)

CC(C)Cc1ccc(C(C)C(=O)O)cc1 (stereo not drawn) [IBUPROFEN]
Not Active: IC50 [1] | IC50 [2] | IC50 (Estrogen receptor) | IC50 [3] | Ki [3] | IC50 [4] | IC50 (Cytochrome P450 3A4) | Ki (Cytochrome P450 3A4) | IC50 (Nitric oxide synthase 1)

COc1ccc2c(c1)c(CC(=O)O)c(C)n2C(=O)c1ccc(Cl)cc1 [INDOMETHACIN]
Not Active: IC50 [1] | IC50 [2] | IC50 (Estrogen receptor) | IC50 [3] | Ki [3] | IC50 [4] | IC50 (Cytochrome P450 3A4) | Ki (Cytochrome P450 3A4) | IC50 (Nitric oxide synthase 1)

CCc1c2c(nc3ccc(OC(=O)N4CCC(N5CCCCC5)CC4)cc13)-c1cc3c(c(=O)n1C2)COC(=O)[C@]3(O)CC [IRINOTECAN]
Not Active: IC50 [1] | IC50 [2] | IC50 (Estrogen receptor) | IC50 [3] | Ki [3] | IC50 [4] | IC50 (Cytochrome P450 3A4) | Ki (Cytochrome P450 3A4) | IC50 (Nitric oxide synthase 1)

CC(C(=O)O)c1cccc(C(=O)c2ccccc2)c1 (stereo not drawn) [KETOPROFEN]
Not Active: IC50 [1] | IC50 [2] | IC50 (Estrogen receptor) | IC50 [3] | Ki [3] | IC50 [4] | IC50 (Cytochrome P450 3A4) | Ki (Cytochrome P450 3A4) | IC50 (Nitric oxide synthase 1)

O=S(=O)([O-])CCS.[Na+] [MESNA]
Not Active: IC50 [1] | IC50 [2] | IC50 (Estrogen receptor) | IC50 [3] | Ki [3] | IC50 [4] | IC50 (Cytochrome P450 3A4) | Ki (Cytochrome P450 3A4) | IC50 (Nitric oxide synthase 1)

CC(=O)Nc1cccc(O)c1 [METACETAMOL]
Not Active: IC50 [1] | IC50 [2] | IC50 (Estrogen receptor) | IC50 [3] | Ki [3] | IC50 [4] | IC50 (Cytochrome P450 3A4) | Ki (Cytochrome P450 3A4) | IC50 (Nitric oxide synthase 1)

Cc1ncc([N+](=O)[O-])n1CCO [METRONIDAZOLE]
Not Active: IC50 [1] | IC50 [2] | IC50 (Estrogen receptor) | IC50 [3] | Ki [3] | IC50 [4] | IC50 (Cytochrome P450 3A4) | Ki (Cytochrome P450 3A4) | IC50 (Nitric oxide synthase 1)

Oc1ccc(OCc2ccccc2)cc1 [MONOBENZONE]
Not Active: IC50 [1] | IC50 [2] | IC50 (Estrogen receptor) | IC50 [3] | Ki [3] | IC50 [4] | IC50 (Cytochrome P450 3A4) | Ki (Cytochrome P450 3A4) | IC50 (Nitric oxide synthase 1)

CC(C)(Oc1ccc(C2CCCc3ccccc32)cc1)C(=O)O (stereo not drawn) [NAFENOPIN]
Not Active: IC50 [1] | IC50 [2] | IC50 (Estrogen receptor) | IC50 [3] | Ki [3] | IC50 [4] | IC50 (Cytochrome P450 3A4) | Ki (Cytochrome P450 3A4) | IC50 (Nitric oxide synthase 1)

CC(C)[C@H]1CC[C@H](C(=O)N[C@H](Cc2ccccc2)C(=O)O)CC1 [NATEGLINIDE]
Not Active: IC50 [1] | IC50 [2] | IC50 (Estrogen receptor) | IC50 [3] | Ki [3] | IC50 [4] | IC50 (Cytochrome P450 3A4) | Ki (Cytochrome P450 3A4) | IC50 (Nitric oxide synthase 1)

CCN[C@@H]1C[C@H](N)[C@@H](O[C@H]2OC(CN)=CC[C@H]2N)[C@H](O)[C@H]1O[C@H]1OC[C@](C)(O)[C@H](NC)[C@H]1O [NETILMICIN]
Not Active: IC50 [1] | IC50 [2] | IC50 (Estrogen receptor) | IC50 [3] | Ki [3] | IC50 [4] | IC50 (Cytochrome P450 3A4) | Ki (Cytochrome P450 3A4) | IC50 (Nitric oxide synthase 1)

CCOC(=O)C1=C(C)NC(C)=C(C(=O)OC)C1c1cccc([N+](=O)[O-])c1 (stereo not drawn) [NITRENDIPINE]
Not Active: IC50 [1] | IC50 [2] | IC50 (Estrogen receptor) | IC50 [3] | Ki [3] | IC50 [4] | IC50 (Cytochrome P450 3A4) | Ki (Cytochrome P450 3A4) | IC50 (Nitric oxide synthase 1)

Source: ChEMBL document CHEMBL1909046, “DrugMatrix in vitro pharmacology data”
